Columns and labels:
5-HT2C receptor = target: T1, 5-HT2C receptor (Homo sapiens, UniProt P28335); test: Gq activation via Gq/γ1 dissociation BRET, 5-HT2C; assay type: cell-based; details: primary signaling for 5-HT2C via Gq-coupled mechanism compared to B-arrestin
T1 construct: expressed in transfected cells; host or cells: HEK293T
T1 sequence (P28335 33-458): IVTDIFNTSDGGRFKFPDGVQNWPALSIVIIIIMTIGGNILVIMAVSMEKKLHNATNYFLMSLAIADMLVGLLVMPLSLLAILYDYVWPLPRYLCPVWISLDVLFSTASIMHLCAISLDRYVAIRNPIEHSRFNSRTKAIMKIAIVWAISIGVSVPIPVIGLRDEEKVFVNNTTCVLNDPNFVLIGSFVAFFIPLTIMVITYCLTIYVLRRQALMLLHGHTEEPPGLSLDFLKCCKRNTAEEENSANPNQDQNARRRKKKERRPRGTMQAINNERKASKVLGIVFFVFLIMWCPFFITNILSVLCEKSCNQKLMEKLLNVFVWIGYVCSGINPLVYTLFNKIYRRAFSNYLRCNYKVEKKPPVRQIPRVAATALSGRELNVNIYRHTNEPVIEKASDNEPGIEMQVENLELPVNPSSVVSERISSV
From the text: (§1) To measure 5-HT2 receptor-mediated Gq activation via Gq/y1 dissociation as measured by Bioluminescence Resonance Energy Transfer (BRET) (McCorvy J D, Wacker D, Wang S, Agegnehu B, Liu J, Lansu K, Tribo A R, Olsen R H J, Che T, Jin J, Roth B L. Structural determinants of 5-HT2B receptor activation and biased agonism. Nat Struct Mol Biol. 2018; 25(9): 787-96), HEK293T cells were sub-cultured in Dulbecco's Modified Eagle Medium (DMEM) supplemented with 10% dialyzed fetal bovine serum (FBS) and were co-transfected in a 1:1:1:1 ratio with Rluc8-fused human Gaq (Gaq-Rluc8), a GFP2-fused to the C-terminus of human Gy1 (Gy1-GFP2), human GI31, and 5-HT2 receptor using TransiT-2020. After at least 18-24 hours, transfected cells were plated in poly-lysine coated 96-well white clear bottom cell culture plates in DMEM containing 1% dialyzed FBS at a density of 25,000-40,000 cells in 200 μL per well and incubated overnight. The following day, medium was decanted, and cells were washed with 60 μL of drug buffer (1×HBSS, 20 mM HEPES, pH 7.4), then 60 μL of drug buffer was added per well. Cells were pre-incubated at in a humidified atmosphere at 37° C. before receiving drug stimulation. […] Substrate addition occurred 15 minutes before reading and utilized 10 μL of the Rluc substrate coelenterazine 400a for Gq dissociation BRET^2 (Prolume/Nanolight, 5 μM final concentration). Plates were read for luminescence at 400 nm and fluorescent GFP2 emission at 510 nm at 1 second per well using a Mithras LB940 multimode microplate reader (e.g. one provided by Berthold). The BRET ratios of fluorescence/luminescence were calculated per well and were plotted as a function of drug concentration using Graphpad Prism 8 (Graphpad Software Inc., San Diego, CA). Data were normalized to % 5-HT stimulation and analyzed using nonlinear regression “log(agonist) vs. response” to yield Emax and EC50 parameter estimates. […]

5-HT2A receptor = target: T2, 5-HT2A receptor (Homo sapiens, UniProt P28223); test: Gq activation via Gq/γ1 dissociation BRET, 5-HT2A; assay type: cell-based; details: hallucinogenic or non-hallucinogenic plastogenic effect predicted from level of 5-HT2A agonist efficacy
T2 construct: expressed in transfected cells; host or cells: HEK293T
T2 sequence (P28223 whole entry): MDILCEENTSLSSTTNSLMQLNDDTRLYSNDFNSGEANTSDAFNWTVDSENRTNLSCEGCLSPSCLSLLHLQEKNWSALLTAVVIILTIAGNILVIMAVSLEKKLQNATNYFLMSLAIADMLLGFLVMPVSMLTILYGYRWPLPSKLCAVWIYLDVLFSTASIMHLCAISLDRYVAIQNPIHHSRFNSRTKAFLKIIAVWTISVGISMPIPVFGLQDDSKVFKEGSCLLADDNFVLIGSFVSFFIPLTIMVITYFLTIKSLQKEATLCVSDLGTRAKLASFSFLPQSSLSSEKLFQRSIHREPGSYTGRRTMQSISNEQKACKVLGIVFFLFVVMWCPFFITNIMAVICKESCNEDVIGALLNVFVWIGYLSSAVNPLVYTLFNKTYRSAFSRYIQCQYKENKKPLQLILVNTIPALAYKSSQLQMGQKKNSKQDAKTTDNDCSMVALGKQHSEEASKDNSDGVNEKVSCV
From the text: as §1

CSc1ccc(F)cc1C1CC1CN(C)C (stereo not drawn) was tested, and the “5-HT2C Gq signaling bias?” value (5-HT2C receptor) was “Yes” and the “Hall or N-Hall?” value (5-HT2A receptor) was “N-Hall”.

For CNCC1CC1c1cc(F)ccc1SC (stereo not drawn), the “5-HT2C Gq signaling bias?” value (5-HT2C receptor) was “Yes” and the “Hall or N-Hall?” value (5-HT2A receptor) was “N-Hall”.

With CNC[C@H]1C[C@@H]1c1cc(F)ccc1OC the “5-HT2C Gq signaling bias?” value (5-HT2C receptor) was “Yes” and the “Hall or N-Hall?” value (5-HT2A receptor) was “N-Hall”.
